# Positions count from the first letter of the chain named.
# Tests used:
# UCP1 and UCP3 = experiment: qRT-PCR of necrosis associated genes; type: cell-based
# Method: (§1) ALDH1A isoforms are the primary members of the ‘retinaldehyde’ subgroup of aldehyde dehydrogenases. Retinaldehydes play a primary role in the biosynthesis of retinoic acid and thereby regulate retinoic acid mediated transcription. Retinoic acid transcription changes in cells treated with UM673 were assayed. […] 80× induction of the mitochondrial uncoupling proteins UCP1 and UCP3 was observed (FIG. 7B).
# [1] = test system: pancreatic cancer cell lines and breast cancer cell lines (ASPC, PANC1, MCF7); experiment: MTT toxicity screen, pancreatic and breast cancer cell lines; type: cell-based
# Method: A. MTT assay of cytotoxicity of indicated compounds at increasing doses 72 hours after treatment of ovarian cancer cell. B. MTT assay for pancreatic (ASPC and PANC1) and breast cancer (MCF7) cell lines. C. MTT assays of 673 for normal cells (HOSE and MSC) and ovarian cancer (OvCAR8) controls.
# (§2) TD50 ranged from 12-50 uM.
# [2] = test system: FACS isolated CD133+A2780 cells; experiment: Tumor sphere forming assay, CD133+ A2780; type: cell-based, human; settings: single treatment with 10 μM
# Method: (§3) Tumor associated ascites cells were isolated by centrifugation and treated with ACK lysis buffer (Fischer Scientific). 5000 cells were placed in each well of the 6-well ultra-low adherence plates (Corning, Acton, Mass., USA) with 3 ml of supplemented MEBM (Lonza). After 24 hours, cells were treated with either media alone or UM #673. Media was added every 3-4 days, and all tumor sphere counts were done at 2 weeks. Alternatively, sphere assays were also performed with cancer cell lines A2780 and OVCAR8. Cells in culture were trypsinized and 2000 cells were either directly placed or FACS isolated for CD133+ and CD133− cells before plating in wells of ultra-low adherence plates. Images of spheres were photographed using the Olympus Microsuite Biological suite Software.
# (§4) In order to further characterize UM #673 activity targeting OvCSC, a functional CSC assay was performed. Tumor sphere forming assays were performed with both FACS isolated CD133+A2780 cells and OVCAR8 cells (a cell line with >90% CD133 expression). […] This assay was repeated using primary human ovarian cancer associated ascites cell from three patients. Treatment with 673 was associated with an average of 7.3 fold (range 4-50) reduction in the number of spheres formed (FIG. 4A).
# all the ALDH1A isoforms = experiment: In vitro enzymatic inhibition assays, text summary for ALDH1A isoforms; type: biochemical
# [3] = test system: normal human ovarian surface epithelial cells; settings: 72 h
# Method: (§7) 7500 of HOSE, MSC, and OVCAR8 cells were plated on a 96-well plate and rested for 24 hours. They were then treated with incremental doses of 673 for 72 hours. They were then analyzed according to the Vybrant® MTT Cell Proliferation Assay Kit (Invitrogen).
# (§8) The toxicity of these compounds versus normal human ovarian surface epithelial cells and healthy adipose derived mesenchymal stem cells was assayed.
# [4] = test system: healthy adipose derived mesenchymal stem cells; settings: human, 72 h
# Method: as §7, §8
# [5] = test system: in vitro treated, PI-/Annexin-FACS isolated live cells; experiment: Tumor initiation capacity of in vitro treated live cells injected into mice; type: in vivo
# Method: An important functional aspect of a cancer stem cell is the ability to initiate tumors with limited cell numbers. In order to determine if UM673 could impact tumor initiation, cells were treated in vitro with a single dose of UM673 alone or in combination with cisplatin. Cells were allowed to recover for three days and then PI(−)/Annexin(−) live cells were faxed isolated and injected into mice. 200, 1000, or 5000 cells from each treatment group (n=4-10/group) were injected.
# [6] = test system: A2780 tumor cell xenografts; experiment: A2780 tumor cell xenografts, tumor growth; type: in vivo, mice; settings: unsorted A2780 cells, treatment from day 3
# Method: (§5) 6-8 week old nude female mice were purchased from Charles River Laboratories. All xenograft experiments were performed with approval of the University Committee on Use and Care of Animals of the University of Michigan. To generate tumors, 7.5×10^4 unsorted A2780 cells or 7500 CD133+ sorted A2780 cells were combined with 100 μl of DPBS and 100 μl of Matrigel (BD Biosciences), and then implanted subcutaneously into bilateral axillae of each mouse. 3 days after inoculation with tumors, mice were given an intra-peritoneal injection of (1) control DMSO 40 μl, (2) Cisplatin 250 μg/ml, (3) UM #673 10 μM, or (4) Cisplatin plus UM #673 (n=9 mice per treatment group). Tumor growth was measured using calipers, and tumor volume was calculated based on the modified ellipsoid formula (L×W×W/2), where L is the length and W is the width of the tumor. The mice were euthanized when tumors reached 1.5 to 2 cm^3 and animal safety euthanasia guidelines were met. Intraperitoneal tumors were generated using 5×10^6 OVCAR8 in […] of PBS and injected I.P. 3 days after inoculation, mice were given intra-peritoneal injection of Cisplatin or Cisplatin plus UM #673.
# The impact of UM673 as a single agent was evaluated. NOD/SCID mice were inoculated with 1×10^5 unsorted A2780 cells and treatment was initiated three days after tumor inoculation with either vehicle control or UM #673. […] This is consistent with other studies of CSC targeting agents.
# The experiments were repeated in combination with cisplatin. In addition, xenografts from both whole cell line and FACS isolated CD133+ cells were treated.
# [7] = test system: Annexin-V staining (apoptosis); experiment: PI/Annexin-V FACS analysis; type: cell-based
# Method: PI/Annexin-V FACS analysis of UM673 treated cells was performed to determine if cells were undergoing apoptosis.
# [8] = test system: primary human tumor xenografts; experiment: Primary human tumor xenografts from chemotherapy refractory ovarian cancer; type: in vivo, mice
# Text: In order to confirm in vivo activity against primary ovarian cancers, primary human tumor xenografts were generated from a patient with chemotherapy refractory ovarian cancer. Xenografts were allowed to grow until they reached ˜500 mm^3, and then treatment with either vehicle, cisplatin or cisplatin and UM 673 was initiated. […] After discontinuation of therapy, tumor regrowth was observed after approximately 4 weeks (FIG. 5D).
# intracellular calcium = experiment: Fluorescent analysis of intra-cellular calcium; type: cell-based
# Method: Programmed cell necrosis is known to be linked with decreases in cellular ATP and an increase in intracellular calcium. […] Furthermore, reduction in CD 133 positive cells with UM 673 treatment could be partially abrogated by the calcium scavenging compound BAPTA (FIG. 6E). As program cell necrosis is known to be activated via the RIP kinases, the impact of the RIP kinase inhibitor necrostatin was evaluated.
# A2780 = experiment: MTT assay, A2780 viability; type: cell-based, human
# Method: as §2
# [9] = test system: isolated CD133+ cancer stem cells initiated tumors; experiment: CD133+ cancer stem cell initiated tumors, tumor growth; type: in vivo, mice; settings: single agent
# Method: as §5
# The impact of UM673 as a single agent was evaluated. NOD/SCID mice were inoculated with 1×10^5 unsorted A2780 cells and treatment was initiated three days after tumor inoculation with either vehicle control or UM #673. […]
# [10] = test system: ovarian cancer cell lines including A2780, SKOV3, and OvCAR8; experiment: MTT assay, ovarian cancer cell lines; type: cell-based, human; settings: 72 hours, range over cell lines
# Method: as §2
# mitochondrial metabolism = experiment: LCMS of cellular metabolites; type: cell-based
# [11] = test system: primary human ovarian cancer associated ascites cell; experiment: Tumor sphere forming assay, primary ascites cells; type: cell-based; settings: three patients, range 4-50
# Method: as §3, §4
# OVCAR8 cells = experiment: Tumor sphere forming assay, OVCAR8; type: cell-based, human
# Method: as §3, §4
# Oct4, and Sox2 = experiment: qRT-PCR of stem cell genes; type: cell-based
# Method: as §1
# [12] = test system: cellular oxygen consumption; experiment: SeaHorse cellular metabolism studies; type: cell-based
# Method: UCP1 and UCP3 proteins play a critical role in cellular metabolism. The impact of UM673 on cellular metabolism was evaluated.
# A2770 cells = experiment: FACS analysis of CD133 and ALDH expressing cells; type: cell-based
# ALDH+ cells = experiment: FACS isolated single cells in microfluidic culture, cell death; type: cell-based
# Method: (§6) In order to determine if the loss of CD133 or ALDH expressing cells is due to downregulation/loss of enzyme function or due to cell death, FACS isolated CD133+ or ALDH+ cells were treated as single cells in microfluidic culture. 673 treatment was associated with the death of ˜93% of CD133+ cells and 65% death of ALDH+ cells (FIG. 1B).
# CD133+ cells = experiment: as above; type: cell-based
# Method: as §6
# ALDH1A1 (WT) = molecular target: T1, ALDH1A1 (WT) (Homo sapiens, UniProt P00352); experiment: In vitro enzymatic inhibition assay, ALDH1A1 (WT); type: biochemical; settings: 2 min incub
# T1 sequence (P00352 1-501): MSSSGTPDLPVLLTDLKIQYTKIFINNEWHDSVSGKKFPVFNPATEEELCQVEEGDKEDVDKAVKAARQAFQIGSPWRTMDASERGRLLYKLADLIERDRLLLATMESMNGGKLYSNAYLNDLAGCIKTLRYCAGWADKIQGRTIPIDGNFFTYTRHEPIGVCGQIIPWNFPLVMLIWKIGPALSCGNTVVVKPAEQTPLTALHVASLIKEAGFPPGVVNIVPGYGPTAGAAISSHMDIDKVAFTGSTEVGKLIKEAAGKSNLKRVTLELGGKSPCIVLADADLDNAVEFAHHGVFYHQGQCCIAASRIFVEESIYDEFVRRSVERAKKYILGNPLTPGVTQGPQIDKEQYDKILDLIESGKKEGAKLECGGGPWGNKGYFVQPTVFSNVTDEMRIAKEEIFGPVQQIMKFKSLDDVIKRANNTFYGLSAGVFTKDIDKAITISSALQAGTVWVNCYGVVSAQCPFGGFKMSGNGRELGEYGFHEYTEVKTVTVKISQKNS
# ALDH1A3 = molecular target: T2, ALDH1A3 (Homo sapiens, UniProt P47895); experiment: In vitro enzymatic inhibition assay, ALDH1A3; type: biochemical
# T2 sequence (P47895 1-512): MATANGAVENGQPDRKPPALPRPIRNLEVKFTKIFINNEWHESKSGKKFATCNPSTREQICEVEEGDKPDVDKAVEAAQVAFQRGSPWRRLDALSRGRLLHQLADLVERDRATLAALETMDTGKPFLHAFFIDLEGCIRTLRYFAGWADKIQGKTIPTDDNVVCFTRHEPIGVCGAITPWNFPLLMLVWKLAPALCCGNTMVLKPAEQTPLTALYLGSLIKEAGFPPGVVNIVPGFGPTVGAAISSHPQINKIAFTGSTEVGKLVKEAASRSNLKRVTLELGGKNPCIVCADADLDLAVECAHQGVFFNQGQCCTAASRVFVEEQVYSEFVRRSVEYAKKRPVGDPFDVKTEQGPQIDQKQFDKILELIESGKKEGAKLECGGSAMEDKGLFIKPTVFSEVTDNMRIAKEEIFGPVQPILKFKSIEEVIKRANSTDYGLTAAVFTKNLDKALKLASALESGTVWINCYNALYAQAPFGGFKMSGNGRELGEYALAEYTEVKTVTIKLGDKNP
# ALDH1A2 = molecular target: T3, ALDH1A2 (Homo sapiens, UniProt O94788); experiment: In vitro enzymatic inhibition assay, ALDH1A2; type: biochemical
# T3 sequence (O94788 1-518): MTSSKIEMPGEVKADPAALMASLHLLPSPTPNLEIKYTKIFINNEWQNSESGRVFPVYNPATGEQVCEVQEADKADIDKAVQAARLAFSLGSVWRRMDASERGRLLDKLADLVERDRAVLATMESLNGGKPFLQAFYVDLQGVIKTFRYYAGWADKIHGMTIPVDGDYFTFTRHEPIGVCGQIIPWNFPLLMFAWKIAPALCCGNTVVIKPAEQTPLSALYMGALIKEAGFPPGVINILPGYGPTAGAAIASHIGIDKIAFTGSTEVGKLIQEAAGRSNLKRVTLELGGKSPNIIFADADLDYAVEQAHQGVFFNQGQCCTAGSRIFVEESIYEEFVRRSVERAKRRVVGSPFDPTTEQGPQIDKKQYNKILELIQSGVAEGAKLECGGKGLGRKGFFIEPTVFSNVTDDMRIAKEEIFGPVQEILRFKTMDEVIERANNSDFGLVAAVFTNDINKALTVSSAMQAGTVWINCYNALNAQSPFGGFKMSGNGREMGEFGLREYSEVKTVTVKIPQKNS
# ALDH3A1 = ALDH3A1 (Homo sapiens, UniProt P30838); experiment: In vitro enzymatic inhibition assay, ALDH3A1; type: biochemical
# ALDH1A1 (S121) = molecular target: T4, ALDH1A1 (S121) (Homo sapiens, UniProt P00352, N121S); experiment: In vitro enzymatic inhibition assay, ALDH1A1 (S121); type: biochemical
# T4 sequence (P00352 1-501 N121S): T1 sequence (P00352 1-501) with N121S
# ALDH3A1, sequence (P30838 whole entry): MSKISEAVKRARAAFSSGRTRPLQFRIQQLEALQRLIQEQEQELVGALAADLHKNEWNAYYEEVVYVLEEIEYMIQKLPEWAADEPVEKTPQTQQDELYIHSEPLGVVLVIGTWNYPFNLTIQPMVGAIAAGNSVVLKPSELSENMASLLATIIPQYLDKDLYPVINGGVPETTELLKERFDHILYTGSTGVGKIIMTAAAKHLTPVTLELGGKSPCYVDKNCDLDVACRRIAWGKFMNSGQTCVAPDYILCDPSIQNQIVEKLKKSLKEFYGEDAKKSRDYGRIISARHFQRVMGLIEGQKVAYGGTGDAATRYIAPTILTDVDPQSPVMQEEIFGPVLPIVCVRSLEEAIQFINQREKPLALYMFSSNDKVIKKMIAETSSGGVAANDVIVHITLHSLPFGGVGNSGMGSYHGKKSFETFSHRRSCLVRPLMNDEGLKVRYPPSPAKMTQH
compound,measurement,setting,value
Cc1cc(N2Cc3ccccc3C2)ccc1C=O [UM673],induction of the mitochondrial uncoupling proteins UCP1 and UCP3,UCP1 and UCP3,80 ×
same,cytotoxicity versus bulk populations,[1],variable modest cytotoxicity
same,decrease in sphere number,[2],2.6 fold
same,reduction in total cell number,[2],~8 fold
same,IC50,all the ALDH1A isoforms,< 230 nM
same,TD50,[3],~105 µM
same,TD50,[4],~105 µM
same,tumor initiation (tumors/injections),[5]; 200 cells injected,2/4
same,tumor initiation (tumors/injections),[5]; 1000 cells injected,4/4
same,tumor initiation (tumors/injections),[5]; 5000 cells injected,4/5
same,effect on tumor initiation capacity,[5]; compared to untreated controls,neither cisplatin or UM673 affected tumor initiation
same,tumor growth,[6],statistically significant reduction in tumor growth
same,tumor growth,[6]; listed as UM 673,modest restrictions in tumor growth
same,Annexin-V staining,[7],not associated with an increase in Annexin-V staining
same,time to tumor regrowth after discontinuation of therapy,"[8]; mouse, in vivo",approximately 4 weeks
same,tumor growth,[8]; treatment started at ˜500 mm^3,prevented tumor regrowth
same,increase in intracellular calcium,intracellular calcium,fourfold increase
same,lowest dose with measurable effects on A2780 viability,A2780,2.5 µM
same,tumor growth,[9],Greatest activity
same,TD50,[10],12 to 50 µM
same,levels of citrate,mitochondrial metabolism,marked decrease
same,average reduction in the number of spheres formed,[11],7.3 fold
same,decrease in sphere formation,OVCAR8 cells,5.6 fold
same,reduction total cell numbers,OVCAR8 cells,3 fold
same,expression of stem cell factors Oct4 and Sox2,"Oct4, and Sox2",down regulated
same,cellular oxygen consumption,[12],slow and steady decline
same,loss of ALDH+ and CD133+ cells,A2770 cells,"reductions in not only ALDH+ cells, but also CD133+ cells"
same,death of ALDH+ cells,ALDH+ cells,65%
same,death of CD133+ cells,CD133+ cells,~93%
DEAB [reference compound],IC50,ALDH1A1 (WT),519 ± 75 nM
same,IC50,ALDH1A3,> 20000 nM
same,IC50,ALDH1A2,> 20000 nM
same,IC50,ALDH3A1,> 20000 nM
same,IC50,ALDH1A1 (S121),1490 ± 240 nM

# Source: patent US9468632B2, “Methods and compositions for targeting cancer stem cells” (The Regents of the University of Michigan, priority 2012, dated 2016)
